Residues, ends and D or L forms follow the SMILES beside them.
Molecular target: T1, Endothelin-1 receptor (Sus scrofa, UniProt Q29010)
T1 sequence (Q29010 whole entry): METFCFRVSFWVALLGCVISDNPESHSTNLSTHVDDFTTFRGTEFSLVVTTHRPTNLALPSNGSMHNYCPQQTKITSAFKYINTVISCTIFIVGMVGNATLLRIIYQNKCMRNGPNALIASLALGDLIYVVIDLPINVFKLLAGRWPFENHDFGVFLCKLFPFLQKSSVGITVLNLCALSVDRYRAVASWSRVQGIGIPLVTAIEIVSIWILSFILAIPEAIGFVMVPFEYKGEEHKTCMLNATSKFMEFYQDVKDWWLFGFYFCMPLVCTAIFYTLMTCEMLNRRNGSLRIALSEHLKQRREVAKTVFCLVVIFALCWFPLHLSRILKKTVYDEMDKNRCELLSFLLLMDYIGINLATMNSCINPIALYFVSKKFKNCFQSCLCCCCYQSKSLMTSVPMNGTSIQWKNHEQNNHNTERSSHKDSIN
Test: Binding activity against Endothelin A receptor of Porcine aortic smooth muscle membranes

SMILES	IC50 max [nM]
CC(C)[C@H]1NC(=O)[C@H](C)NC(=O)[C@@H](CC(=O)O)NC(=O)[C@@H](Cc2c[nH]c3ccccc23)NC(=O)[C@@H]2CCCN2C1=O (HELM PEPTIDE1{A.[dV].P.[dW].[dD]}$PEPTIDE1,PEPTIDE1,1:R1-5:R2$$$V2.0)	8500
CC[C@H](C)[C@H]1NC(=O)[C@H](C)NC(=O)[C@@H](CCC(=O)O)NC(=O)[C@@H](Cc2c[nH]c3ccccc23)NC(=O)[C@H](CC(C)C)NC1=O (HELM PEPTIDE1{A.[CC[C@H](C)[C@@H](N[*:1])C(=O)[*:2]].L.[dW].[dE]}$PEPTIDE1,PEPTIDE1,1:R1-5:R2$$$V2.0)	1400
CC(C)C[C@H]1C(=O)N[C@H](Cc2c[nH]c3ccccc23)C(=O)N[C@H](CC(=O)O)C(=O)N2CCC[C@H]2C(=O)N[C@H](C(C)C)C(=O)N1C (HELM PEPTIDE1{[meL].[dW].[dD].P.[dV]}$PEPTIDE1,PEPTIDE1,1:R1-5:R2$$$V2.0)	35
CC(C)C[C@@H]1NC(=O)[C@@H](C(C)C)NC(=O)[C@H](C)NC(=O)[C@@H](CCC(=O)O)NC(=O)[C@@H](Cc2c[nH]c3ccccc23)NC1=O (HELM PEPTIDE1{A.[dV].L.[dW].[dE]}$PEPTIDE1,PEPTIDE1,1:R1-5:R2$$$V2.0)	3000

More lines, now with the values ahead:

IC50 max [nM]	SMILES
110	CC(C)C[C@@H]1NC(=O)[C@@H](C(C)C)NC(=O)[C@H](C)NC(=O)[C@@H](CC(=O)O)NC(=O)[C@@H](Cc2c[nH]c3ccccc23)NC1=O (HELM PEPTIDE1{A.[dV].L.[dW].[dD]}$PEPTIDE1,PEPTIDE1,1:R1-5:R2$$$V2.0)
22	CC(C)C[C@@H]1NC(=O)[C@@H](C(C)C)NC(=O)[C@@H]2CCCN2C(=O)[C@@H](CC(=O)O)NC(=O)[C@@H](Cc2c[nH]c3ccccc23)NC1=O (HELM PEPTIDE1{L.[dW].[dD].P.[dV]}$PEPTIDE1,PEPTIDE1,1:R1-5:R2$$$V2.0)
32	CC(C)C[C@@H]1NC(=O)[C@@H](C(C)C)NC(=O)CN(C)C(=O)[C@@H](CC(=O)O)NC(=O)[C@@H](Cc2c[nH]c3ccccc23)NC1=O (HELM PEPTIDE1{L.[dW].[dD].[Sar].[dV]}$PEPTIDE1,PEPTIDE1,1:R1-5:R2$$$V2.0)
34	CC(C)C[C@@H]1NC(=O)[C@@H](C(C)C)NC(=O)[C@H](C)N(C)C(=O)[C@@H](CC(=O)O)NC(=O)[C@@H](Cc2c[nH]c3ccccc23)NC1=O (HELM PEPTIDE1{L.[dW].[dD].[meA].[dV]}$PEPTIDE1,PEPTIDE1,1:R1-5:R2$$$V2.0)
410	CC(C)C[C@@H]1NC(=O)[C@@H](C(C)C)NC(=O)[C@@H]2CCCN2C(=O)[C@@H](CCC(=O)O)NC(=O)[C@@H](Cc2c[nH]c3ccccc23)NC1=O (HELM PEPTIDE1{L.[dW].[dE].P.[dV]}$PEPTIDE1,PEPTIDE1,1:R1-5:R2$$$V2.0)
